A short description of this data set: Solubility in the aqueous reaction mixture (remark in reaction conditions). It counts as physicochemical. The following applies: ~10 mM in 20 mM bicine-buffer (pH 8.8), used an emulsion. Here is the method: • ~10 mM BDG-Aldehyde (very low solubility, used an emulsion) • 10 mM L-alanine • 20 mM bicine-buffer (pH 8.8) • Cv ω-TA (0.75 mg) • Total volume: 1 ml • c) The conversion of BDG-alcohol to BDG-amine by ADH + ω-TAs was confirmed by LC-MS (Figure 3 C) and thin layer chromatography (Figure 4, lanes 1-3).

Each structure is given as a SMILES string.

Experimental findings from patent EP2706118A1, “Method for the production of primary amines” (BASF SE, priority 2012, dated 2014) are described below.

For `CCCCOCCOCC=O` [BDG-Aldehyde], the solubility entry is listed as “very low”.
